# In patent EP0373623A2, “Pharmaceutical compositions useful in potentiating natural killer cell activity” (MERRELL DOW PHARMACEUTICALS INC., priority 1988, dated 1990):
# System: Hepatic metastases
# Experiment: Induced hepatic metastases after intrasplenic tumor cell injection
# Type: in vivo, C57BL/6 mice
# Conditions: DAP 100 mg/kg; for Metastic foci: mean ± S.E., n=8; for % Reduction: reduction in metastic foci from PBS control group
# Procedure: Hepatic metastases were induced as follows. C57BL/6 mice were anesthetized by […] of pentobarbital. The mice were prepped with 70% ethanol, dried with a sterile gauze, and then, with the use of sterile scissors, a small left subcostal incision was made. The spleen was exposed, and its short gastric vessels along with the gastrosplenic ligament were cut, allowing the spleen to be brought onto the animal's abdominal wall attached to its splenic pedicle. […] of a single cell suspension containing 3 x 10⁵ tumor cells in HBSS was injected into the upper pole of the exposed extraabdominal spleen. After the injection was completed, the needle was removed, and a period of 1 minute was allowed to elapse to permit tumor cells to be flushed into the portal circulation. The splenic pedicle was clipped, the spleen was removed, and splenic pedicle was dropped i.p. The abdominal wall musculature and skin were closed in one layer. The animals were randomly allocated to their respective treatment groups and were allowed to recover. By day 3 after tumor injection, micrometastases were apparent histologically.
# Each group was then treated with DAP, intraperitonealy, subcutaneously, or orally. A control group was treated with phosphate buffered saline (PBS). Metastic foci was determined and the percent reduction in metastic foci from the control group was determined with each group treated with DAP as follows: […]
smiles,measurement,setting,value
"CC(=O)NCCCCNC(C)=O [DAP, Diacetylputrescine]",Metastic foci,"d1-10, i.p.",40.8 ± 14.7
same,% Reduction,"d1-10, i.p.",65.9%
same,Metastic foci,"d1-10, p.o.",27.2 ± 7.1
same,% Reduction,"d1-10, p.o.",77.3%
same,Metastic foci,"d1-10, s.c.",31.0 ± 8.4
same,% Reduction,"d1-10, s.c.",74.1%
